PMC8072719, “Synthesis and Antiproliferative Activity of Triazoles Based on 2-Azabicycloalkanes” (Materials, 2021)
Read-outs that look alike come from different tables or passages of the source.

Assays:
NCI-H1581 = test: Growth inhibition assay (SRB assay), lung tumor cell line NCI-H1581; assay type: cell-based, human; conditions: for IC50: 72 h, SRB, mean ± SD; for SI (Selectivity Index): SI = IC50 for normal cell line BALB/3T3 / IC50 for NCI-H1581
Description: (§1) Three human cancer cell lines were used to evaluate the antiproliferative activity of the obtained compounds: melanoma cell line Hs294T, pancreatic tumor cell line MIA PaCa-2, and lung tumor cell line NCI-H1581. The normal mouse fibroblasts cell line (BALB/3T3 clone A31) was selected as reference. All these lines were purchased from the ATCC (American Type Culture Collection, Rockville, MD, USA). NCI-H1581 cells were grown in RPMI 1640 with GlutaMax medium (Gibco, Thermo Fisher Scientific, Leicestershire, UK) with 5% fetal bovine serum (FBS; HyClone, GE Healthcare, Logan, UT, USA). Hs294T and BALB/3T3 cells were grown in Dulbecco’s Modified Eagle Medium (DMEM; Gibco, Thermo Fisher Scientific, Leicestershire, UK) supplemented with 2 mM L-glutamine and 10% FBS (HyClone, GE Healthcare, Logan, UT, USA). MIA PaCa-2 cells were grown in DMEM (Gibco, Thermo Fisher Scientific, Leicestershire, UK) supplemented with 2 mM L-glutamine, 2.5% Horse Serum (Gibco, Thermo Fisher Scientific, Leicestershire, UK), and 10% FBS (HyClone, GE Healthcare, Logan, UT, USA). All culture media were supplemented with antibiotics: 100 U/mL penicillin (Polfa Tarchomin SA, Warsaw, Poland) and 100 µg/mL streptomycin (Sigma-Aldrich Chemie GmbH, Steinheim, Germany); cells were grown at 37 °C in a humid atmosphere with 5% CO2.
(§2) Twenty-four hours prior to the addition of the tested compounds, 2000 cells per well of Balb/3T3, MIA PaCa-2, and Hs294T cell lines and 2500 cells of NCI-H1581 cell line were seeded in 384-well plates (Greiner Bio-One, Kremsmünster, Austria) in an appropriate medium. The studied compounds were added to the cells at 8 different concentrations in a series of dilutions from 100 to 0.00001 µg/mL for 72 h. Cisplatin was applied as a reference compound (Teva Pharmaceuticals, Warsaw, Poland). DMSO (Sigma-Aldrich Chemie GmbH, Steinheim, Germany) was used as solvent control. The DMSO concentrations corresponded to the solvent concentrations in the tested compound solutions. Then, 30 µL per well of ice-cold 50% TCA (trichloroacetic acid, Avantor, Gliwice, Poland) was added to the cells. After one hour of incubation at room temperature (RT) cells were washed five times with water and stained with 0.4% SRB (sulforhodamine B, Sigma-Aldrich Chemie GmbH, Steinheim, Germany). Twenty-five microliters per well of 0.4% solution of SRB in 1% acetic acid (Avantor, Gliwice, Poland) was applied. After 0.5 h of incubation at RT, the unbound dye was washed out with 1% acetic acid. The bound dye in each well was dissolved in 70 µl of 10 mM TRIS (Tris base, Sigma-Aldrich, Chemie GmbH, Steinheim, Germany). A microplate reader (BioTek Synergy H4, Swindon, UK) with Gen5 software was used to read the absorbance at 540 nm. The results are presented as mean IC50 values (concentration of the compound that inhibits cell proliferation by 50%) ± standard deviation. Half-maximal inhibitory concentration (IC50) values were calculated using the Prolab-3 system based on Cheburator 0.4 [22]. Each experiment was performed in triplicate, and three independent repetitions were made for each experiment. Raw data and IC50 values were placed in the supplementary materials.

Hs294T = test: Growth inhibition assay (SRB assay), melanoma cell line Hs294T; assay type: cell-based, human; conditions: Homo sapiens, Hs 294T, 72 h, mean ± SD
Description: as §1, §2

MIA PaCa-2 = test: Growth inhibition assay (SRB assay), pancreatic tumor cell line MIA PaCa-2; assay type: cell-based, human; conditions: Homo sapiens, mean ± SD
Description: as §1, §2

BALB/3T3 clone A31 = test: Growth inhibition assay (SRB assay), normal fibroblasts BALB/3T3 clone A31; assay type: cell-based, mouse; conditions: mean ± SD
Description: as §1, §2

[1] = Solvability in DMSO (table footnote); assay type: physicochemical; design: key to solvability in dimethyl sulfoxide (DMSO): **: poor or no solvability in dimethyl sulfoxide (DMSO); key to solvability in DMSO: [b]: poor or no solvability in DMSO
[2] = Homo sapiens, NCI-H1581, 72 h, read-out: IC50 NCI-H1581
[3] = Homo sapiens, NCI-H1581, 72 h, supplement, read-out: IC50 NCI-H1581 (raw data)
[4] = supplement, read-out: IC50 Hs294T (raw data)
[5] = MIA PaCa-2, 72 h, read-out: IC50 MIA PaCa-2
[6] = MIA PaCa-2, supplement, 72 h, read-out: IC50 MIA PaCa-2 (raw data)
[7] = Mus musculus, BALB/3T3 clone A31, 72 h, normal cell line, read-out: IC50 BALB3T3
[8] = Mus musculus, BALB/3T3 clone A31, 72 h, supplement, read-out: IC50 BALB3T3 (raw data)
[9] = 72 h, normal cell line, read-out: IC50 BALB3T3

SMILES | IC50 (NCI-H1581; [2]) [µM] | IC50 (NCI-H1581; [3]) | SI (Selectivity Index) (NCI-H1581) | IC50 (Hs294T; read-out: IC50 Hs294T) [µM] | IC50 (Hs294T; [4]) | IC50 (MIA PaCa-2; [5]) [µM] | IC50 (MIA PaCa-2; [6]) | IC50 (BALB/3T3 clone A31; [7]) [µM] | IC50 (BALB/3T3 clone A31; [8]) | solvability in dimethyl sulfoxide (DMSO) [1] | solvability in DMSO ([1]; supplement) | IC50 (BALB/3T3 clone A31; [9]) [µM] | IC50 (NCI-H1581; Homo sapiens, NCI-H1581, 72 h, supplement, read-out: IC50 NCI-H1581 (non-rounded data)) [µM] | IC50 (Hs294T; supplement, read-out: IC50 Hs294T (non-rounded data)) [µM] | IC50 (MIA PaCa-2; MIA PaCa-2, supplement, 72 h, read-out: IC50 MIA PaCa-2 (non-rounded data)) [µM] | IC50 (BALB/3T3 clone A31; Mus musculus, BALB/3T3 clone A31, 72 h, supplement, read-out: IC50 BALB3T3 (non-rounded data)) [µM] | IC50 (NCI-H1581; read-out: IC50 NCI-H1581) [µM]
C[C@@H](c1ccccc1)N1C[C@@H](n2cc(CCCc3cn([C@@H]4CN([C@@H](C)c5ccccc5)[C@H]5CC[C@@H]4C5)nn3)nn2)[C@@H]2CC[C@H]1C2 [Compound 10, 1,3-Bis-(1-((1S,4S,5R)-2-((S)-1-phenylethyl)-2-azabicyclo[3.2.1]octan-4-yl)-1H-1,2,3-triazol-4-yl) propane] | 4.2 ± 0.36 | 2.54 ± 0.22 µg/mL | 3 | 10.3 ± 3.39 | 6.26 ± 2.05 µg/mL | 40.2 ± 1.6 | 24.3 ± 0.97 µg/mL | 11.8 ± 5.03 | 7.17 ± 3.04 µg/mL |  |  |  |  |  |  |  | 
C[C@@H](c1ccccc1)N1C[C@H](n2cc(CCCc3cn([C@H]4CN([C@@H](C)c5ccccc5)[C@H]5CC[C@@H]4C5)nn3)nn2)[C@@H]2CC[C@H]1C2 [Compound 11, 1,3-Bis-(1-((1S,4R,5R)-2-((S)-1-phenylethyl)-2-azabicyclo[3.2.1]octan-4-yl)-1H-1,2,3-triazol-4-yl) propane] | 4.4 ± 0.61 | 2.66 ± 0.37 µg/mL | 6 | 9.71 ± 3.08 | 5.87 ± 1.86 µg/mL | 37.6 ± 5.51 | 22.7 ± 3.33 µg/mL | 26.7 | 16.2 ± 2.88 µg/mL | 11 ** | [b] | 26.7 ± 4.76 |  |  |  |  | 
C[C@@H](c1ccccc1)N1C[C@@H](n2cc(COCc3cn([C@@H]4CN([C@@H](C)c5ccccc5)[C@H]5CC[C@@H]4C5)nn3)nn2)[C@@H]2CC[C@H]1C2 [Compound 12, (1S,1′S,4S,4′S,5R,5′R)-4,4′-(4,4′-(oxybis(methylene))bis(1H-1,2,3-triazole-4,1-diyl))bis(2-((S)-1-phenylethyl)-2-azabicyclo[3.2.1]octane)] | 6 ± 0.86 | 3.64 ± 0.52 µg/mL | 7 | 32.4 ± 7.83 | 19.7 ± 4.75 µg/mL | 51.5 ± 1.6 | 31.2 ± 0.97 µg/mL | 44.4 ± 7.5 | 26.9 ± 4.55 µg/mL |  |  |  |  |  |  |  | 
C[C@@H](c1ccccc1)N1C[C@H](n2cc(COCc3cn([C@H]4CN([C@@H](C)c5ccccc5)[C@H]5CC[C@@H]4C5)nn3)nn2)[C@@H]2CC[C@H]1C2 [Compound 13, (1S,1′S,4R,4′R,5R,5′R)-4,4′-(4,4′-(oxybis(methylene))bis(1H-1,2,3-triazole-4,1-diyl))bis(2-((S)-1-phenylethyl)-2-azabicyclo[3.2.1]octane)] | 4.88 ± 0.41 | 2.96 ± 0.25 µg/mL | 9 | 13.7 ± 2.31 | 8.28 ± 1.4 µg/mL | 44.9 ± 3.69 | 27.2 ± 2.24 µg/mL | 46.1 | 27.9 ± 6.85 µg/mL |  |  | 46.1 ± 11.3 |  |  |  |  | 
C[C@@H](c1ccccc1)N1C[C@H](n2cc(-c3cccc(-c4cn([C@H]5CN([C@@H](C)c6ccccc6)[C@H]6CC[C@@H]5C6)nn4)c3)nn2)[C@@H]2CC[C@H]1C2 [Compound 17, 1,3-Bis-(1-((1S,4R,5R)-2-((S)-1-phenylethyl)-2-azabicyclo[3.2.1]octan-4-yl)-1H-1,2,3-triazol-4-yl) benzene] | > 100 | > 100 µM |  | > 100 | > 100 µM | > 100 | > 100 µM | > 100 | > 100 µM |  |  |  | > 100 | > 100 | > 100 | > 100 | 
C[C@@H](c1ccccc1)N1C[C@@H](n2cc(CN(Cc3cn([C@@H]4CN([C@@H](C)c5ccccc5)[C@H]5CC[C@@H]4C5)nn3)Cc3cn([C@@H]4CN([C@@H](C)c5ccccc5)[C@H]5CC[C@@H]4C5)nn3)nn2)[C@@H]2CC[C@H]1C2 [Compound 18, N,N,N-tri((1-((1S,4S,5R)-2-((S)-1-phenylethyl)-2-azabicyclo[3.2.1]octan-4-yl)-1H-1,2,3-triazol-4-yl)methyl) amine] | 2.4 | 2.2 ± 0.06 µg/mL |  | 20.8 ± 5.02 | 18.8 ± 4.52 µg/mL | 25.7 ± 0.26 | 23.11 ± 0.23 µg/mL | 23.1 ± 2.72 | 20.8 ± 2.45 µg/mL |  |  |  |  |  |  |  | 2.44 ± 0.07
C[C@@H](c1ccccc1)N1C[C@H](n2cc(CN(Cc3cn([C@H]4CN([C@@H](C)c5ccccc5)[C@H]5CC[C@@H]4C5)nn3)Cc3cn([C@H]4CN([C@@H](C)c5ccccc5)[C@H]5CC[C@@H]4C5)nn3)nn2)[C@@H]2CC[C@H]1C2 [Compound 19, N,N,N-tris((1-((1S,4R,5R)-2-((S)-1-phenylethyl)-2-azabicyclo[3.2.1]octan-4-yl)-1H-1,2,3-triazol-4-yl)methyl) amine] | 3.27 ± 0.42 | 2.94 ± 0.38 µg/mL |  | 29.1 ± 1.36 | 26.2 ± 1.22 µg/mL | 31.8 ± 2.31 | 28.7 ± 2.08 µg/mL | 27.7 ± 3.24 | 24.9 ± 2.92 µg/mL |  |  |  |  |  |  |  | 
CC(c1ccccc1)N1CC(n2cc(C3C4CCC(C4)N3C(C)c3ccccc3)nn2)C2CCC1C2 (stereo not shown) [Compound 20] | 6.3 | 3.01 ± 0.66 µg/mL | 6 | 57 ± 13.6 | 27.5 ± 6.57 µg/mL | 63 ± 7.29 | 30.4 ± 3.51 µg/mL | 39.4 ± 4.86 | 19 ± 2.34 µg/mL |  |  |  |  |  |  |  | 6.25 ± 1.37
